How the values were obtained:
Format in all cases: physicochemical
[1] = Experimental Example 2: stability of tablet vs bulk powder, 60° C. 2 weeks, HPLC
Procedure: The tablet obtained in Example 1 was put in a capped glass bottle and sealed. After storage at 60° C. for 2 weeks, the contents of the compound A and the related substances in the tablet were measured. Similarly, the bulk powder used for production of the tablet in Example 1 was stored under the same conditions and then the contents of the compound A and the related substances were measured. A comparison of stabilities between the formulated tablet and the bulk powder was made.
(§1) Measurement of the contents of the compound A and the related substances was carried out by a HPLC method under the following conditions: • solvent: water/acetonitrile mixed solution (4:6), • measurement wavelength: 287 nm, • column: XTerra MS C18 3.5 μm 4.6 mm×150 mm (manufactured by Waters Co., Ltd.), • mobile phase: a gradient of 10 mM ammonium acetate solution/acetonitrile mixed solution (4:3) and acetonitril/10 mM ammonium acetate solution mixed solution (9:1), and • oven temperature: around 40° C.

[2] = Experimental Example 3: stability of tablets with/without sodium ascorbate, 40° C. 1 month, HPLC
Procedure: as §1
The equilibrium moisture content (ERH) of each tablet was measured by the following method. The results were 3.0% and 3.4%, respectively.
These tablets were put in a capped glass bottle and sealed. After storage at 40° C. for 1 month, the contents of the compound A and the related substances were measured. The content of the compound A was measured in the same manner as the measurement method in Experimental Example 2, except that a water/acetonitrile mixed solution (4:6) was used as a solvent. The measurement of the related substances was carried out in the same manner as […].

[3] = Experimental Example 1: residual ratio of bulk powders after storage; settings: bulk powder left at 40° C. and 75% RH in atmospheric air for 1 month
Procedure: After the bulk powder of the compound A and sodium ascorbate were left at 40° C. and 75% RH in atmospheric air for 1 month, their residual ratios were measured. As a result, the residual ratio of the compound A was 89.7% (W/W) and the residual ratio of sodium ascorbate was 99.0% (W/W).
The quantitative determination of the compound A was carried out by a HPLC method under the following conditions: • solvent: acetonitrile, • measurement wavelength: 287 nm, • column: CHIRALCEL OJ-R 4.6×150 mm (manufactured by Daicel Chemical Industries, Ltd. CPI Co.), • mobile phase: a mixed (16:9) solution of acetonitrile/10 mM ammonium acetate aqueous solution, • oven temperature: around 25° C.
The quantitative determination of sodium ascorbate was carried out by iodine titration method (solvent: metaphosphoric acid solution (1→50), indicator: starch reagent solution).

[4] = initial: immediately after production
[5] = sealed capped glass bottle, after 2-week storage at 60° C.
[6] = content in the bulk used for Examples 5 and 7

Structure (SMILES)	Related substance C [1, 4]	Related substance D [1, 4]	Related substance E [1, 4]	Related substance F [1, 4]	related substance A [1, 4]	residual ratio [1, 4]	Related substance C [1, 5]	Related substance D [1, 5]	Related substance E [1, 5]	Related substance F [1, 5]	related substance A [1, 5]	related substance B [1, 5]	residual ratio [1, 5]	Related substance C [2, 6]	Related substance D [2, 6]	Related substance E [2, 6]	related substance A [2, 6]	related substance B [2, 6]	related substance A ([2]; content in the bulk used, last item of the list A to F (second mention of A))	residual ratio [3]
COc1cc2c(cc1OC)CN(c1c(C)c(C)c3c(c1C)[C@@H](c1ccc(C)cc1)C(C)(C)O3)C2 [compound A, (R)-(+)-5,6-dimethoxy-2-[2,2,4,6,7-pentamethyl-3-(4-methylphenyl)-2,3-dihydro-1-benzofuran-5-yl]isoindoline]	0.24%	0.32%	0.13%	3.01%	0.46%	100.0%	1.13%	2.12%	0.78%	10.41%	1.74%	0.59%	87.9%	0.40%	0.43%	0.08%	0.31%	0.08%	2.69%	89.7 % (W/W)
O=C1O[C@H]([C@@H](O)CO)C([O-])=C1O.[Na+] [sodium ascorbate]	–	–	–	–	–	–	–	–	–	–	–	–	–	–	–	–	–	–	–	99.0 % (W/W)

— patent US20050118202A1, “Solid compositions containing compounds unstable to oxygen and method for stabilization thereof” (priority 2001, published 2005)
